Data on six molecules can be found in patent US4965280A, “Antifungal carbinols” (E. I. Du Pont de Nemours and Company, priority 1989, dated 1990).

≈ marks a conversion by molar mass, not a printed value. Like-named read-outs stand apart in the source and are kept apart here. Some results are limits rather than exact numbers.

The test system of one test is Pyricularia oryzae. Briefly: whole plant or invertebrate. The format is in vivo. To be noted: Pyricularia oryzae, 120 h, read-out: disease control rating, Ex. E, 100 PPM.
The subject of test [1] is Rhizoctonia solani. Briefly: Example K cotton blight. In kind it is in vivo. To be noted: 336 h, 5 kg/ha, read-out: disease control rating, Ex. K. As for the experimental part:
[…] Seeds and soil were then inoculated with a mixture of sand, cereal and mycelium of the fungus Rhizoctonia solani, causal agent of cotton blight, and incubated in a growth chamber at 30° C. for 14 days. Disease ratings were then made.

The test system of the next test is Botrytis cinerea. Briefly: Example C bean grey mold. To be noted: Botrytis cinerea, 24 h, 100 PPM; read-out: disease control rating, Ex. C. The format is in vivo. In a few lines:
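At 20 or 100 ppm, each compound was applied as an aqueous suspension (acetone 6% final; TREM 014 250 ppm) sprayed onto young broad bean plants to the point of run-off.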

Another test concerns Pythium aphanadermatum. Briefly: Example J cucumber damping off. In kind it is in vivo. To be noted: Pythium, 336 h; 5 kg/ha; read-out: disease control rating, Ex. J. The gist of the method: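 Seeds and soil were inoculated with a mix of sand, cereal and Pythium aphanadermatum mycelium, the fungus responsible for cucumber damping off. They were kept in a growth chamber at 30° C. for 14 days, and disease was then rated to assess control.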

Test [2] deals with Rhizoctonia solani. Briefly: Example F rice sheath blight. In kind it is in vivo. To be noted: Rhizoctonia solani, 144 h, 100 PPM; read-out: disease control rating, Ex. F. The gist of the method:
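Application rates were 100 or 20 ppm, delivered as a foliar spray to the point of run-off on rice seedlings. The formulation used 6% acetone in water with 250 ppm surfactant.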

The test system of test [3] is Candida albicans ATCC 11651. Briefly: In vivo systemic Candida infection in mice, primary assay. On the set-up: species or system Candida albicans; CF-1 female mice. To be noted: Candida albicans, read-out: % Survival. The gist of the method:
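CF-1 female mice (20 g, 10 per group) were infected IV with 0.2 ml of 1×10^7/ml C. albicans ATCC 11651, then given test compound subcutaneously at 50 or 150 mg/kg/day at 1 and 6 h post-infection and once daily for three more days. Survival was followed for 21 days against infected untreated mice; ≥70% protection at 14 days was scored active.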

The next test relates to Puccinia recondita. Briefly: Example G wheat leaf rust. The format is in vivo. To be noted: 100 PPM, read-out: disease control rating, Ex. G.
Test [4] relates to Cercosporidium personatum. Briefly: Example B Peanut Late Leafspot. In kind it is in vivo. To be noted: Nothopassalora personata; 100 PPM; read-out: disease control rating, Ex. B. The gist of the method: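 Dose 100 or 20 ppm; vehicle acetone 6% v/v final in water + 250 ppm surfactant; applied by spraying peanut seedlings to run-off.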
The next test concerns Venturia inaequalis. Briefly: Example A apple scab. The format is in vivo. To be noted: 100 PPM, read-out: disease control rating, Ex. A. The gist of the method: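 First, compounds are taken up in acetone amounting to 6% of the final volume. Next, they are suspended in purified water with 250 ppm TREM 014 at 100 or 20 ppm. Finally, seedlings of apple are sprayed until run-off.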

The test system of the next test is Plasmorpara viticola. Briefly: Example I grape downy mildew. In kind it is in vivo. To be noted: read-out: disease control rating, Ex. I. In a few lines: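 Compounds were dissolved in acetone (6% of final volume) and suspended at 100 or 20 ppm in purified water with 250 ppm TREM 014 surfactant (polyhydric alcohol esters). Grape seedlings were sprayed with this suspension to run-off.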

The next test deals with Phytophthora infestans. Briefly: whole plant or invertebrate. In kind it is in vivo. To be noted: Phytophthora infestans, in Solanum lycopersicum, read-out: disease control rating, Ex. H, 100 PPM.
In test [5] the test system is Candida albicans ATCC 11651. Briefly: In vitro antifungal MIC, microtiter broth dilution. To be noted: Candida albicans, ATCC11651, 24 h, read-out: MIC values, C. albicans, 30°, 24 hours.
For test [6], the system named is Erysiphe graminis f. sp. tritici. Briefly: Example D wheat powdery mildew. The format is in vivo. To be noted: Blumeria graminis, 144 h; 100 PPM; read-out: disease control rating, Ex. D. The gist of the method: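 First, compound taken up in acetone, 6% of the end volume. Next, suspended in water with 250 ppm polyhydric alcohol esters at 100 or 20 ppm. Last, applied to wheat seedlings until run-off.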

The next test relates to Sclerotium rolfsii. Briefly: Example M southern blight. The format is in vivo. To be noted: Agroathelia rolfsii, 336 h; 5 kg/ha; read-out: disease control rating, Ex. M. The procedure:
[…] Seeds and soil were then inoculated with a mixture of sand, cereal and mycelium of the fungus Sclerotium rolfsii, causal agent of sourthern blight, and incubated in a growth chamber at 30° C. for 14 days. Disease ratings were then made.

Test [7] has as its system Aspergillus fumigatus ATCC 28214. Briefly: In vitro antifungal MIC, microtiter broth dilution. To be noted: Aspergillus fumigatus, ATCC28214, 24 h, read-out: MIC values, A. fumigatus, 30°, 24 hours. In general terms: Dilution methods test growth across graded concentrations, often in twofold steps.
Test [8] relates to Fusarium oxysporum f. sp. cucumerinum. Briefly: Example L cucumber wilt. The format is in vivo. To be noted: 336 h, 5 kg/ha, read-out: disease control rating, Ex. L. As for the experimental part: […] Seeds and soil were then inoculated with a mixture of sand, cereal and mycelium of the fungus Fusarium oxysporum f. sp. cucumerinum, causal agent of cucumber wilt, and incubated in a growth chamber at 30° C. for 14 days. Disease ratings were then made.

The mark [9] stands for this setting: ATCC11651, 168 h, 150 mg/kg per day, day 7.
Where [10] appears, read: ATCC11651, 336 h, 150 mg/kg per day, day 14.
The mark [11] stands for this setting: ATCC11651, 504 h, 150 mg/kg per day, day 21.

As a reminder, the MIC is the least concentration at which growth counts as inhibited. Take `C=C(c1ccc(F)cc1)C(Cn1cncn1)(OC(=O)NC)c1ccc(F)cc1` (centres unmarked) [Example 363]: the pest or weed control at 100 ppm in the test on Pyricularia oryzae was determined as 0%; in the test on Botrytis cinerea, 92%; with Rhizoctonia solani [2], 0%; in the test on Puccinia recondita it was 38%; in test [4], 49%; with Venturia inaequalis it was 0%. The pest or weed control at 100 ppm in the test with Plasmorpara viticola is 0%; in the test on Phytophthora infestans, 0%; in [6], 28%. The pest or weed control at 5000 g/ha (with Rhizoctonia solani [1]; with Pythium aphanadermatum; in the test with Sclerotium rolfsii; in test [8]) was 0% each time. Moreover, the responders at 150 mg/kg in test [3] (ATCC11651, 168 h) stood at 10%; in [3] (ATCC11651, 336 h), 0%; in test [3] (ATCC11651, 504 h) it was 0%. Besides, the MIC in test [5] and in [7] was 100 µg/mL (≈ 260 µM) in each case.

Regarding `C=C(c1ccc(Cl)cc1)C(O)(Cn1cncn1)c1ccc(F)cc1F` (centres unmarked) [Example 28, 2-(2,4-Difluorophenyl)-3-(4-chlorophenyl)-1-(1H-1,2,4-triazol-1-yl)-3-buten-2-ol], the pest or weed control at 100 ppm in the test on Pyricularia oryzae worked out at 81%; in the test with Botrytis cinerea it was 88%; in the test with Rhizoctonia solani [2], 100%; in the test with Puccinia recondita it was 100%; in test [4], 100%; in the test on Venturia inaequalis, 89%. In addition, the pest or weed control at 100 ppm in the test with Plasmorpara viticola amounted to 6%; with Phytophthora infestans, 0%; in test [6], 98%. In addition, the pest or weed control at 5000 g/ha (in the test on Rhizoctonia solani [1]; in the test with Pythium aphanadermatum; in the test on Sclerotium rolfsii; in test [8]) was 0% in each case. For the same molecule, the results for the responders at 150 mg/kg in test [3] (setting [9]) and in [3] (setting [10]) were 100% and 90%, respectively. Moreover, the MIC in test [5] was found to be 0.03 µg/mL (≈ 0.0829 µM); in test [7], 1.6 µg/mL (≈ 4.42 µM).

For `C=C(c1ccccc1Cl)C(O)(Cn1cncn1)c1ccc(Cl)cc1` (centres unmarked) [Example 34], the pest or weed control at 100 ppm in the test with Pyricularia oryzae stood at 86%; in the test on Botrytis cinerea, 94%; with Rhizoctonia solani [2], 16%; in the test on Puccinia recondita it was 66%; in test [4] it was 100%; in the test with Venturia inaequalis, 69%. For the same molecule, the pest or weed control at 100 ppm worked out at 0% in the test with Plasmorpara viticola, 0% in the test on Phytophthora infestans and 60% in test [6]. Moreover, the pest or weed control at 5000 g/ha (in the test on Rhizoctonia solani [1]; with Pythium aphanadermatum; with Sclerotium rolfsii; in [8]) was 0% throughout. The responders at 150 mg/kg in test [3] (setting [9]), in test [3] (setting [10]) and in test [3] (setting [11]) was 100% each time. In addition, the values for the minimal inhibitory concentration (MIC) in [5] and in [7] were 0.03 µg/mL (≈ 0.0833 µM) and 3.2 µg/mL (≈ 8.88 µM), respectively.

For `C=C(c1ccc(C(F)(F)F)cc1)C(O)(Cn1cncn1)c1ccc(F)cc1` (centres unmarked) [Example 65], the pest or weed control at 100 ppm with Pyricularia oryzae turned out to be 30%; in the test on Botrytis cinerea, 94%; in the test on Rhizoctonia solani [2] it was 62%; in the test with Puccinia recondita it was 100%; in test [4] it was 96%; with Venturia inaequalis, 34%. In addition, the values for the pest or weed control at 100 ppm (in the test with Plasmorpara viticola; with Phytophthora infestans; in [6]) were 0%, 0% and 85%, respectively. The pest or weed control at 5000 g/ha (in the test on Rhizoctonia solani [1]; in the test with Pythium aphanadermatum; with Sclerotium rolfsii; in test [8]) was 0% in each case. The responders at 150 mg/kg stood at 100% in test [3] (setting [9]), 70% in test [3] (setting [10]) and 50% in [3] (setting [11]). For the same molecule, the MIC worked out at 0.2 µg/mL (≈ 0.53 µM) in [5] and 100 µg/mL (≈ 265 µM) in [7].

As for `C=C(c1ccccc1)C(O)(Cn1ncnc1S)c1ccc(F)cc1` (centres unmarked) [Example 1278], the pest or weed control at 100 ppm with Pyricularia oryzae came to 17%; in the test on Botrytis cinerea, 87%; in the test with Rhizoctonia solani [2], 36%; with Puccinia recondita, 100%; in test [4], 100%; in the test with Venturia inaequalis, 100%. Besides, the results for the pest or weed control at 100 ppm (with Plasmorpara viticola; with Phytophthora infestans; in test [6]) were 16%, 0% and 85%, respectively. The pest or weed control at 5000 g/ha (in the test on Rhizoctonia solani [1]; in the test with Pythium aphanadermatum; with Sclerotium rolfsii; in [8]) was 0% throughout. In addition, the responders at 150 mg/kg in test [3] (setting [9]), in [3] (setting [10]) and in test [3] (setting [11]) was 0% throughout. In addition, the results for the MIC in test [5] and in test [7] were not above 0.4 µg/mL and more than 100 µg/mL, respectively.

`C=C(c1ccc(F)cc1)C(Cn1cncn1)(OC)c1ccc(F)cc1` (centres unmarked) [Example 359]: the pest or weed control at 100 ppm with Pyricularia oryzae is 88%; in the test on Botrytis cinerea it was 83%; in the test on Rhizoctonia solani [2], 62%; with Puccinia recondita it was 100%; in [4], 100%; with Venturia inaequalis, 72%. In addition, the results for the pest or weed control at 100 ppm (with Plasmorpara viticola; with Phytophthora infestans; in test [6]) were 0%, 0% and 95%, respectively. Moreover, the pest or weed control at 5000 g/ha (with Rhizoctonia solani [1]; with Pythium aphanadermatum; with Sclerotium rolfsii; in test [8]) was 0% in each case. Moreover, the responders at 150 mg/kg in test [3] (setting [9]) was determined as 100%; in test [3] (setting [10]) it was 80%; in [3] (setting [11]), 80%. For the same molecule, the MIC came out at 0.4 µg/mL (≈ 1.17 µM) in test [5] and 50 µg/mL (≈ 146 µM) in test [7].
